The target of one test is CAMK2B. Also noted: method as in Reinecke et al. (2023). The conditions noted are these: 5 cell line mix lysate, Kinobeads ε, ref Reinecke et al. (2023), cited from earlier work.
The test system of another test is PRKAG2. The arrangement: method as in Reinecke et al. (2023). The following applies: PRKAG2, 5 cell line mix lysate, Kinobeads ε, ref Reinecke et al. (2023), cited from earlier work.
The next test has as its system IRAK3. The conditions noted are these: IRAK3, 5 cell line mix lysate, Kinobeads ε, ref Reinecke et al. (2023), cited from earlier work.
The test system of another test is NUAK1. Also noted: method as in Reinecke et al. (2023). The following applies: NUAK1, 5 cell line mix lysate, Kinobeads ε, ref Reinecke et al. (2023); cited from earlier work.
The subject of the next test is FGFR3;FGFR4. Also noted: method as in Reinecke et al. (2023). The conditions noted are these: FGFR3;FGFR4, 5 cell line mix lysate, Kinobeads ε, ref Reinecke et al. (2023), cited from earlier work.
Test [1] deals with PDGFRB. Also noted: method as in Reinecke et al. (2023). The conditions noted are these: 5 cell line mix lysate, Kinobeads ε, ref Reinecke et al. (2023), cited from earlier work.
A further test relates to MAP4K3. The arrangement: method as in Reinecke et al. (2023). The following applies: MAP4K3, 5 cell line mix lysate, Kinobeads ε, ref Reinecke et al. (2023), cited from earlier work.
For a further test, the system named is PDO UME051. The test is described as follows: PDO viability assay (CellTiter-Glo, 72 h).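 For Curve top: fraction of plate-wise median vehicle signal.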 Format: cell-based, human. The arrangement: Curve bottom: scale not given here. The method, then: Primary patient-derived PDAC organoid (PDO) experiments were performed in the laboratories of Prof. Maximilian Reichert (University Hospital of the TU Munich, Germany, PDO set 1: B250, B535, B678) and Prof. Jens T. Siveke (University Hospital Essen, Germany; PDO set 2: UME008, UME012, UME051, UME053, UME060, UME061). PDOs were generated from surgical resection, EUS-guided fine needle biopsy (EUS-FNB), or ascites (Appendix Table S2). Surgical specimens were first minced with a sterile scalpel and subsequently washed with Anti-Anti solution and washing medium (PDO set 1), or vice versa (PDO set 2; Appendix Table S3). Biopsy samples were directly washed with an Anti-Anti solution and washing medium. Samples were digested using 1 ml of digestion medium at 37 °C while shaking, and the enzymatic reaction was stopped by adding 15 ml of washing medium (Appendix Table S3). If samples of PDO set 1 were blood-stained, tissue pellets were first incubated with ACK lysing buffer/red blood cells lysis buffer (Thermo Fisher Scientific) for 5 min and then digested using TrypLE (Thermo Fisher Scientific). The reversed procedure was applied for blood-stained samples of PDO set 2. For PDO generation from ascites, the material was first spun down at 500 × g for 5 min. Then, washing medium was added and the suspension was centrifuged at 300 × g for 5 min. If the pellet was blood-stained, ACK lysis buffer was added and incubated at room temperature.
For viability assays in PDOs, confluent organoids were removed from medium, and Matrigel was dissolved by adding 200 μl (PDO set 1) or 2 ml (PDO set 2) of Cell Recovery Solution (Corning), and additionally 500 μl of DPBS (PDO set 1 only). Samples were transferred into a falcon and incubated on ice for 30 min, followed by centrifugation at 300 × g at 4 °C for 5 min (after adding 10 ml washing medium for PDO set 2). Subsequently, TrypLE Express Enzyme (Thermo Fisher) was added to cell pellets and incubated for 2 × 5 min at 37 °C. The enzymatic reaction was quenched by DPBS (PDO set 1) or washing medium (PDO set 2), and samples were washed by centrifugation at 300 × g at 4 °C for 5 min. Five hundred cells/well were seeded in 384-well plates (Corning) in 50 μl of PDO medium containing 10% Matrigel. To allow PDO generation, cells were incubated for 4 days at 37 °C and 5% CO2. […] Experiments were pipetted manually (PDO set 1) or automatically using a TECAN D300e Digital Dispenser (HP; PDO set 2). Treatments were performed in eight replicates, except for PDO PPES045 (quadruplicates). After 72 h, cell viability was measured using the CellTiter-Glo Luminescent Cell Viability Assay (Promega) diluted 1:5 in the final volume of the well. After 20 min of incubation at room temperature under gentle shaking, the acquisition was performed in the microplate reader VantaSTAR (BMG Labtech) using 3000 gain for the amplification measurement of a detected signal (PDO set 1) or the Spark Multimode microplate reader (TECAN) at 800 ms integration time (PDO set 2).
For orientation: Cellular ATP, detected with luciferase, serves as a proxy for viable cell number.

The next test has as its system SLK. Also noted: method as in Klaeger et al. (2017). The conditions noted are these: lysate 4 cell line mix (Colo205, K-562, MV-4-11, and SK-N-BE(2)), Kinobeads y, ref Klaeger et al. (2017); cited from earlier work.
The subject of test [2] is PDGFRB. Also noted: method as in Klaeger et al. (2017). The conditions noted are these: lysate 4 cell line mix (Colo205, K-562, MV-4-11, and SK-N-BE(2)), Kinobeads y, ref Klaeger et al. (2017); cited from earlier work.
In the next test the test system is ACVR1. Also noted: method as in Klaeger et al. (2017). The following applies: lysate 4 cell line mix (Colo205, K-562, MV-4-11, and SK-N-BE(2)), Kinobeads y, ref Klaeger et al. (2017); cited from earlier work.
Another test deals with RPS6KA1. The arrangement: method as in Klaeger et al. (2017). The following applies: lysate 4 cell line mix (Colo205, K-562, MV-4-11, and SK-N-BE(2)), Kinobeads y, ref Klaeger et al. (2017); cited from earlier work.
Setting [3] is: PDO UME051, GEM + Elimusertib (ATRi) dose1, per replicate.
The mark [4] stands for this setting: PDO UME051, GEM + Elimusertib (ATRi) dose2, per replicate.
Where [5] appears, read: PDO UME051, GEM + Elimusertib (ATRi) dose3, per replicate.
The mark [6] stands for this setting: PDO UME051, GEM alone, per replicate.

Values joined by “and” are separate entries in the source; they are usually repeats but may differ in a detail not shown here. Identical values can stand only once. Like-named read-outs stand apart in the source and are kept apart here.

A word on the EC50: it is the midpoint of the concentration-response curve. With `COc1cc(N2CCC(N3CCN(C)CC3)CC2)ccc1Nc1ncc(Cl)c(Nc2ccccc2P(C)(C)=O)n1` [Brigatinib], the Kd is 48.4 nM at CAMK2B (read-out: KDapp); 329 nM on PRKAG2 (read-out: KDapp); 494 nM at IRAK3 (read-out: KDapp); 617 nM on FGFR3;FGFR4 (read-out: KDapp); 737 nM on PDGFRB [1] (read-out: KDapp); 759 nM on MAP4K3 (read-out: KDapp). Further, the concentration giving a half-maximal response (EC50) is 323 nM with CAMK2B; 510 nM in the test on PRKAG2; 1150 nM with IRAK3; 532 nM in the test with NUAK1; 617 nM in the test on FGFR3;FGFR4; 843 nM in the test with PDGFRB [1]. Besides, the EC50 with MAP4K3 was 1160 nM. The pKDapp on CAMK2B is listed as 7.32; at PRKAG2, 6.48; on IRAK3, 6.31; on FGFR3;FGFR4 it was 6.21; at PDGFRB [1], 6.13; at MAP4K3, 6.12.

The pEC50 is the negative decadic logarithm of the EC50, by convention in mol/L. For the compound `Nc1ccn([C@@H]2O[C@H](CO)[C@@H](O)C2(F)F)c(=O)n1` [GEM, Gemcitabine], the EC50 with PDO UME051 (Homo sapiens, PDO UME051, GEM + Elimusertib (ATRi) dose1, mean of replicates, read-out: EC50 mean) is 34.9 nM; with PDO UME051 (Homo sapiens, PDO UME051, GEM + Elimusertib (ATRi) dose2, mean of replicates, read-out: EC50 mean) it was 15.3 nM; in the test on PDO UME051 (Homo sapiens, PDO UME051, GEM + Elimusertib (ATRi) dose3, mean of replicates, read-out: EC50 mean), 8.3 nM; with PDO UME051 (Homo sapiens, PDO UME051, GEM alone, mean of replicates, read-out: EC50 mean) it was 33.8 nM; with PDO UME051 (Homo sapiens, PDO UME051, GEM alone, read-out: EC50 mean), 33.8 nM; in the test with PDO UME051 (PDO UME051, GEM + Elimusertib (ATRi) dose1, per replicate, read-out: EC50), 61.5 nM and 16.6 nM and 29.1 nM and 61.4 nM and 25.6 nM and 36.7 nM and 21.4 nM and 27.2 nM. The EC50 is 6.82 nM and 3.16 nM and 20 nM and 13.8 nM and 5.24 nM and 6.23 nM and 5.82 nM and 5.38 nM with PDO UME051 (PDO UME051, GEM + Elimusertib (ATRi) dose3, per replicate, read-out: EC50); 27.8 nM and 28.8 nM and 47.2 nM and 24.7 nM and 49.9 nM and 54.4 nM and 18.1 nM and 19.1 nM in the test on PDO UME051 (PDO UME051, GEM alone, per replicate, read-out: EC50). Besides, the Curve bottom in the test on PDO UME051 (setting [3]) is 61.54 and 16.58 and 29.10 and 61.40 and 25.59 and 36.68 and 21.39 and 27.20; in the test on PDO UME051 (setting [4]), 15.70 and 19.38 and 5.56 and 12.34 and 19.98 and 22.85 and 24.50 and 1.89; with PDO UME051 (setting [5]), 6.82 and 3.16 and 19.99 and 13.79 and 5.24 and 6.23 and 5.82 and 5.38; with PDO UME051 (setting [6]) it was 27.81 and 28.79 and 47.23 and 24.70 and 49.88 and 54.38 and 18.12 and 19.12. Moreover, the Curve slope is 0.20 and 0.21 and 0.19 and 0.27 and 0.15 and 0.25 and 0.16 with PDO UME051 (setting [3]); 0.23 and 0.20 and 0.22 and 0.26 and 0.21 and 0.14 and 0.30 in the test with PDO UME051 (setting [4]); 0.26 and 0.20 and 0.24 and 0.23 and 0.30 and 0.15 and 0.16 in the test with PDO UME051 (setting [5]); 0.26 and 0.29 and 0.22 and 0.35 and 0.23 and 0.21 and 0.27 and 0.19 in the test on PDO UME051 (setting [6]). In addition, the Curve top with PDO UME051 (setting [3]) is 1.01 and 0.92 and 0.96 and 0.94 and 1.28 and 1.37; in the test on PDO UME051 (setting [4]), 1.02 and 0.95 and 0.89 and 1.03; in the test on PDO UME051 (setting [5]) it was 0.75 and 0.88 and 1.32 and 1.31 and 0.95 and 0.93; in the test with PDO UME051 (setting [6]), 1.27 and 0.99 and 0.93 and 0.97. The negative-log EC50 (pEC50) in the test on PDO UME051 (setting [3]) was 7.21 and 7.78 and 7.54 and 7.59 and 7.44 and 7.67 and 7.57; in the test on PDO UME051 (setting [5]) it was 8.17 and 8.50 and 7.70 and 7.86 and 8.28 and 8.21 and 8.24 and 8.27; in the test with PDO UME051 (setting [6]) it was 7.56 and 7.54 and 7.33 and 7.61 and 7.30 and 7.26 and 7.74 and 7.72.

`C[C@]12O[C@H](C[C@]1(O)CO)n1c3ccccc3c3c4c(c5c6ccccc6n2c5c31)CNC4=O` [Lestaurtinib]: the EC50 was […] in the test with SLK, […] in the test on PDGFRB [2], […] in the test on ACVR1 and 3290 nM in the test with RPS6KA1.

(Values after PMC11876601 (Molecular Systems Biology, 2025).)
